Source: article PMC11533140 (Frontiers in Pharmacology, 2024)
Read-outs that look alike come from different tables or passages of the source. Values belong to the compound of their own block, whether it stands above or below them.

How the values were obtained:
A2780 cells = experiment: MTT antiproliferative assay, A2780; assay type: cell-based; conditions: Homo sapiens
Description: (§1) The in vitro inhibition assays of all final compounds against PI3K were performed by Shanghai ChemPartner Co., Ltd. (China). The antiproliferative activities of the compounds against A2780, U87MG, MCF7, and DU145 cell lines were tested by the standard MTT method. CHO cells stably expressing the transcript of hERG were investigated by the automated whole-cell patch clamp technique, using the QPatch system (Sophion). The compound was tested with Salmonella typhimurium strains TA98 and TA100 with the plate incorporation method at seven doses. Apoptosis was evaluated using the One-Step TUNEL Apoptosis Assay Kit (FITC) (cat. no. MA0223; Meilunbio, Dalian, China), according to the manufacturer’s protocol. Male and female SD rats (SLRC Laboratory Animal Inc., Shanghai, China) were used, and the detailed pharmacokinetic procedures are described in Supplementary Material.

MCF7 cells = experiment: MTT antiproliferative assay, MCF7; assay type: cell-based; conditions: Homo sapiens
Description: as §1

[1] = system: Salmonella typhimurium TA100; experiment: Ames test, plate incorporation, TA100; assay type: cell-based; conditions: control, dose not given
Description: as §1
(§2) S. typhimurium TA98 and TA100 were selected to conduct the Ames experiment to investigate the genotoxicity risk of compound 17p.

[2] = system: Salmonella typhimurium TA98; experiment: Ames test, plate incorporation, TA98; assay type: cell-based; conditions: control, dose not given
Description: as §1, §2

DU145 cells = experiment: MTT antiproliferative assay, DU145; assay type: cell-based; conditions: Homo sapiens, DU-145
Description: as §1

MRC-5 cells = experiment: inhibitory activity on normal cells, MRC-5; assay type: cell-based; conditions: Homo sapiens, MRC5
From the text: (§3) Several clinical PI3K candidates were severely intolerable to patients due to fatal hepatotoxicity and, thus, failed in clinical trials. Thus, evaluating the selectivity of compounds toward normal cells might reduce the risk of clinical failure of new compounds.

HL-7702 cells = experiment: inhibitory activity on normal cells, HL-7702; assay type: cell-based; conditions: Homo sapiens, L02
From the text: as §3

U87MG cells = experiment: MTT antiproliferative assay, U87MG; assay type: cell-based; conditions: Homo sapiens, U-87 MG
Description: as §1

hERG = biological target: T1, hERG (Homo sapiens, UniProt Q12809); experiment: hERG automated whole-cell patch clamp (QPatch), CHO cells; assay type: cell-based; conditions: human, CHO cells stably expressing hERG; CHO cells expressing hERG, patch clamp; read-out: IC50 on hERG potassium currents
T1 construct: expressed in transfected cells
Description: as §1
To evaluate cardiotoxicity, it is necessary to test inhibitory activity on hERG potassium currents.

PI3Kα = PI3Kα (Homo sapiens, UniProt P42336); experiment: in vitro PI3Kα kinase inhibition assay; assay type: biochemical
Description: as §1

[3] = mean of three independent experiments, read-out: IC50 against PI3Kα
[4] = mean of three independent experiments
[5] = Figure 5 activity bins, read-out: IC50 range in SAR figure (PI3Kα)

Chain of PI3Kα (P42336 whole entry): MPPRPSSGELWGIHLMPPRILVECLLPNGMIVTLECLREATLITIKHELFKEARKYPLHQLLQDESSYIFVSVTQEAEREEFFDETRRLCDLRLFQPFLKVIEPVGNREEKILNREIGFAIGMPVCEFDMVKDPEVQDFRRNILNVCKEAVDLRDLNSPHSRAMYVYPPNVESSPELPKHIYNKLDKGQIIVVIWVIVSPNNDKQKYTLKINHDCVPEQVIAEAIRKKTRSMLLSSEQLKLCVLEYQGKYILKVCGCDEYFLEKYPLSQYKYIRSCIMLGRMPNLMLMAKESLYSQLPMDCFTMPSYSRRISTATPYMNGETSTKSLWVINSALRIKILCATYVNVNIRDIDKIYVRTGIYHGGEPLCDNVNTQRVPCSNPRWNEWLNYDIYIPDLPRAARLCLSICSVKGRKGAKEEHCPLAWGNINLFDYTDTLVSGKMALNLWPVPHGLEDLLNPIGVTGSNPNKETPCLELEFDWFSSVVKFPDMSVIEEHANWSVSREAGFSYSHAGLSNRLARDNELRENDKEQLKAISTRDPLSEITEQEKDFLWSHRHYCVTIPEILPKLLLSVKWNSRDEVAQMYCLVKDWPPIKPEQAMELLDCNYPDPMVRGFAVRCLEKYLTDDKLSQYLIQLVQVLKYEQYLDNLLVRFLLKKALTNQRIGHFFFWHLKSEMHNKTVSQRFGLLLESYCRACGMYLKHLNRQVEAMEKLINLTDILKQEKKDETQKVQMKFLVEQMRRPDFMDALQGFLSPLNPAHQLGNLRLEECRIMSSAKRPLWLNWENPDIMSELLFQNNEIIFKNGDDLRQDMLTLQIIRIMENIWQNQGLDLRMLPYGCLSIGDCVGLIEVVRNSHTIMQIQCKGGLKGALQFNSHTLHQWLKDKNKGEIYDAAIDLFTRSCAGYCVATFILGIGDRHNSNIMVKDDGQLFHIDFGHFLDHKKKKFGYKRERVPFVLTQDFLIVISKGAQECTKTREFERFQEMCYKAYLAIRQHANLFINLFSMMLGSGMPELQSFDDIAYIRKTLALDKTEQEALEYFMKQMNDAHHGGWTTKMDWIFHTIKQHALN
Chain of PI3Kα (P27986 whole entry partner): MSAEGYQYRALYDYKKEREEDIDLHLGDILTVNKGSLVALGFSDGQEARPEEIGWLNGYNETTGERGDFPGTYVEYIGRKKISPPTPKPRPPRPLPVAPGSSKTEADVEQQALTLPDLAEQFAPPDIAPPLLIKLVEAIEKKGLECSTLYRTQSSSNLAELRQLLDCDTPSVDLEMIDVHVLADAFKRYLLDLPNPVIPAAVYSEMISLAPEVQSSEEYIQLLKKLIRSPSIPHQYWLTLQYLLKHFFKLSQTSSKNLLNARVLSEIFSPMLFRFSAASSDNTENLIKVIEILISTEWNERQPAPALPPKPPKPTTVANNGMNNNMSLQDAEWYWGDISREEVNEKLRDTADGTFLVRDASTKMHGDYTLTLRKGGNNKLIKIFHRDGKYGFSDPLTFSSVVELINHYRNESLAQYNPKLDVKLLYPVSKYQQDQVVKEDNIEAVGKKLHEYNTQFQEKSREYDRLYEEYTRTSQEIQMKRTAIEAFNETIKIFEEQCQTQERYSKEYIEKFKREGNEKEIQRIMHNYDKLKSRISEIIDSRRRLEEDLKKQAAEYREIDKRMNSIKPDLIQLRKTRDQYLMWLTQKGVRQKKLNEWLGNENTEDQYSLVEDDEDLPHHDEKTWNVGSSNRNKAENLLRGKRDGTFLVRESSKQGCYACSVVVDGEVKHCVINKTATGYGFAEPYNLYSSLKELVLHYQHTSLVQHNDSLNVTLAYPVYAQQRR
T1 sequence (Q12809 whole entry): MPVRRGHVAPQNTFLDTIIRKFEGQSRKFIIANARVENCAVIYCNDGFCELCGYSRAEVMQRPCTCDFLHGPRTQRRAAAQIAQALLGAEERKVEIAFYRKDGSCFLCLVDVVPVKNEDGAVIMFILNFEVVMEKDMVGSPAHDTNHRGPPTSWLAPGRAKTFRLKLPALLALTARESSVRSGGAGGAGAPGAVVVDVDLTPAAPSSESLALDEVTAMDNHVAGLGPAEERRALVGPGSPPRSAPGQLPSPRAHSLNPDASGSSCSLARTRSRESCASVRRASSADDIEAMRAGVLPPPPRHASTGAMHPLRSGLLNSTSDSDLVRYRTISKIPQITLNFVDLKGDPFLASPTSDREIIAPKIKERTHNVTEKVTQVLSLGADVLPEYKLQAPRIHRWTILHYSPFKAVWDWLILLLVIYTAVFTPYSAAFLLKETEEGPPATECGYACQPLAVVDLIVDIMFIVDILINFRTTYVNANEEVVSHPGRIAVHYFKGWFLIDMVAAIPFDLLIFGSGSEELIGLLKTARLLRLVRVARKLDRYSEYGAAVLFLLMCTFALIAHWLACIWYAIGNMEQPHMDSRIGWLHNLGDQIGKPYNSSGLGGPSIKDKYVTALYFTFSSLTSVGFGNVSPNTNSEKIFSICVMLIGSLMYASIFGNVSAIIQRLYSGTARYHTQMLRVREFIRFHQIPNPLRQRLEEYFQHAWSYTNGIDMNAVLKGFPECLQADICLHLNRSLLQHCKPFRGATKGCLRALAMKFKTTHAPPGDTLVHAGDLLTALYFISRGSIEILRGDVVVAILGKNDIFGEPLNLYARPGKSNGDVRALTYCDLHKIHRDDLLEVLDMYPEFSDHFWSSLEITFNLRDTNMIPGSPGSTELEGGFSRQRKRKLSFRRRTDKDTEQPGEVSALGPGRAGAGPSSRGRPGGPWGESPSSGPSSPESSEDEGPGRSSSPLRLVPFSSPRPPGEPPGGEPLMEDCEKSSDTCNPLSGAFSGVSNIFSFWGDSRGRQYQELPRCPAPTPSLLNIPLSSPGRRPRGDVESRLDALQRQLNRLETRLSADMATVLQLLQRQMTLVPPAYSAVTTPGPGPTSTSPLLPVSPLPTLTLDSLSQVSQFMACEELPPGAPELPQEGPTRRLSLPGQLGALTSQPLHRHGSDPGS

Compound: Nc1cc(C(F)(F)F)c(-c2cc(N3CCOCC3)nc(N3CCOCC3)n2)cn1 [BKM-120, Buparlisib, reference compound]
IC50 (A2780 cells): 410 ± 60 nM
IC50 (MCF7 cells): 280 ± 40 nM
Number of bacterial colony revertant mutations (mean ± SD) TA100 [1]: 555 ± 94
Number of bacterial colony revertant mutations (mean ± SD) TA98 [2]: 241 ± 55
IC50 (DU145 cells): 2240 ± 140 nM
IC50 (MRC-5 cells): 980 ± 100 nM
IC50 (HL-7702 cells): 890 ± 60 nM
IC50 (U87MG cells): 2150 ± 190 nM

Compound: COc1cc(N)c(Cl)cc1C(=O)NC1CCN(CCCOc2ccc(F)cc2)CC1OC (stereo not shown) [Cisapride, reference compound]
IC50 (hERG): 410 ± 60 nM

Compound: CCOC(=O)C1CCN(c2cc(-c3cnc(N)cc3C(F)(F)F)nc(N3CCOCC3)n2)CC1 [Compound 12a]
IC50 (PI3Kα; [3]): 2290 nM

Compound: CCOC(=O)C1CCN(c2nc(-c3cnc(N)cc3C(F)(F)F)cc(N3CCOCC3)n2)CC1 [Compound 12b]
IC50 (PI3Kα; [3]): 685 ± 62.6 nM

Compound: c1nn(C2CCNCC2)cc1-c1cc(N2CCOCC2)nc(N2CCOCC2)n1 [Compound 12c]
IC50 against PI3Kα (PI3Kα; [4]): no activity
IC50 (PI3Kα; [3]): > 10000 nM

Compound: COc1ccc(-c2cc(N3CCOCC3)nc(N3CCOCC3)n2)cn1 [Compound 12d]
IC50 against PI3Kα (PI3Kα; [4]): poor activity
IC50 (PI3Kα; [3]): 1010 nM

Compound: c1nn(C2CCNCC2)cc1-c1nc(N2CCOCC2)nc(N2CCOCC2)n1 [Compound 12e]
IC50 against PI3Kα (PI3Kα; [4]): no activity
IC50 (PI3Kα; [3]): > 10000 nM

Compound: CCOC(=O)C1CCN(c2nc(-c3cnc(N)cc3C(F)(F)F)nc(N3CCOCC3)n2)CC1 [Compound 12f]
IC50 (PI3Kα; [3]): 371 ± 45.4 nM

Results, then the compound that gave them:

IC50 (PI3Kα; [5]): 30 to 300 nM
IC50 (PI3Kα; [3]): 162 ± 13.1 nM
Compound: N#Cc1c(-c2cn[nH]c2)nc(N2CCOCC2)nc1N1CCOCC1 [Compound 17a]

IC50 (PI3Kα; [5]): 30 to 300 nM
IC50 (PI3Kα; [3]): 254 ± 26.9 nM
Compound: N#Cc1c(-c2cccc3[nH]ncc23)nc(N2CCOCC2)nc1N1CCOCC1 [Compound 17b]

IC50 (PI3Kα; [3]): 1360 nM
Compound: Cc1nn(C)cc1-c1nc(N2CCOCC2)nc(N2CCOCC2)c1C#N [Compound 17c]

IC50 range in SAR figure (PI3Kα) (PI3Kα; Figure 5 activity bins): no activity
IC50 (PI3Kα; [3]): > 10000 nM
Compound: N#Cc1c(-c2cnn(C3CCNCC3)c2)nc(N2CCOCC2)nc1N1CCOCC1 [Compound 17d]
